The values that follow come from PubChem BioAssay (NCI).

SMILES strings stand for the structures.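 Following 48 hours of exposure in 96-well plates, responses at five concentrations were used to interpolate endpoints linearly. GI50 = concentration required for 50% inhibition of growth. The concentration for full growth arrest is given as TGI.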

Among the test systems are HCC-2998 colon; SW-620 colon; KM12 colon; CAKI-1 renal; K-562 leukemia; RPMI-8226 leukemia; NCI-H522 lung; A549 NSCLC; DU-145 prostate; UACC-62 melanoma.
What all share (test): growth of human tumour cells (NCI), 48 h

Take `CCc1ccc(NC(=O)Nc2c[nH]c3ccccc23)cc1`: the GI50 is 18 µM with HCC-2998 colon; over 38300 nM with SW-620 colon; 5630 nM in the test with KM12 colon; 3.59 µM in the test on CAKI-1 renal; 6890 nM with K-562 leukemia; 567 nM in the test with RPMI-8226 leukemia. For the same compound, the GI50 in the test on NCI-H522 lung was 1180 nM; in the test with A549 NSCLC it was 6260 nM; with DU-145 prostate, over 34000 nM; in the test on UACC-62 melanoma, 31500 nM. The TGI is over 50.8 µM in the test on HCC-2998 colon; over 55 µM in the test with SW-620 colon; over 43.4 µM in the test with KM12 colon; over 42 µM in the test on CAKI-1 renal; over 100 µM in the test on K-562 leukemia; over 100 µM in the test on RPMI-8226 leukemia. Moreover, the TGI in the test with NCI-H522 lung is 2670 nM; in the test with A549 NSCLC, over 48 µM; in the test with DU-145 prostate it was over 51.5 µM; in the test with UACC-62 melanoma, over 51.7 µM.
As to `CSc1nnc(CCSc2ccnc3c(C(F)(F)F)cccc23)o1`, the GI50 in the test with HCC-2998 colon was 64.8 µM; in the test on SW-620 colon, over 100000 nM; in the test with KM12 colon it was over 100000 nM; in the test on CAKI-1 renal it was 31.8 µM; in the test with K-562 leukemia, 47300 nM; in the test with RPMI-8226 leukemia, 33500 nM. The GI50 with NCI-H522 lung, in the test on A549 NSCLC, in the test on DU-145 prostate and with UACC-62 melanoma was over 100000 nM throughout. Moreover, the TGI in the test with HCC-2998 colon, with SW-620 colon, with KM12 colon, in the test on CAKI-1 renal, in the test with K-562 leukemia and in the test with RPMI-8226 leukemia was over 100 µM in each case. The TGI was over 100000 nM in the test with NCI-H522 lung, over 100 µM in the test with A549 NSCLC, over 100 µM with DU-145 prostate and over 100 µM in the test with UACC-62 melanoma.
For the compound `CCn1c(-c2nonc2N)nc2cncc(C(=O)N3CCNCC3)c21`, the GI50 in the test on HCC-2998 colon was over 25 µM; in the test on SW-620 colon it was over 25000 nM; in the test on KM12 colon, over 25000 nM; with CAKI-1 renal, over 25 µM; in the test with K-562 leukemia it was over 25000 nM; in the test on RPMI-8226 leukemia, over 25000 nM. The GI50 with NCI-H522 lung, with A549 NSCLC, in the test on DU-145 prostate and in the test with UACC-62 melanoma was over 25000 nM throughout. Moreover, the TGI in the test on HCC-2998 colon, in the test on SW-620 colon, in the test with KM12 colon, in the test on CAKI-1 renal, in the test with K-562 leukemia and in the test on RPMI-8226 leukemia was over 25 µM throughout. The TGI in the test on NCI-H522 lung is over 25000 nM; with A549 NSCLC, over 25 µM; in the test on DU-145 prostate it was over 25 µM; with UACC-62 melanoma, over 25 µM.
`COc1cc(Cn2cc3c(c2)-c2oncc2CC3)cc(OC)c1OC`: the GI50 with HCC-2998 colon was 0.0413 µM; with SW-620 colon, 32.7 nM; in the test with KM12 colon, 31.2 nM; in the test on CAKI-1 renal, 0.0337 µM; in the test on K-562 leukemia, under 18.3 nM; in the test with RPMI-8226 leukemia, 45.9 nM. Further, the GI50 with NCI-H522 lung was 39.8 nM; in the test with A549 NSCLC it was 50.9 nM; in the test with DU-145 prostate it was 41.2 nM; in the test with UACC-62 melanoma, 36.2 nM. The TGI with HCC-2998 colon was 17 µM; with SW-620 colon, over 100 µM; with CAKI-1 renal, over 42.1 µM; with K-562 leukemia it was over 34.7 µM; in the test with RPMI-8226 leukemia, 10.4 µM; with NCI-H522 lung, 1290 nM. For the same compound, the figures for the TGI with A549 NSCLC, in the test with DU-145 prostate and in the test with UACC-62 melanoma were over 100 µM, over 100 µM and over 81.7 µM, respectively.
Take `CCc1c(C)[nH]c(/C=C2\N=C(c3ccc[nH]3)C=C2OC)c1C`: the GI50 in the test on HCC-2998 colon was 0.451 µM; in the test on KM12 colon it was 94.4 nM; with CAKI-1 renal, 0.292 µM; in the test on K-562 leukemia it was 805 nM; with RPMI-8226 leukemia, 23.9 nM; in the test with NCI-H522 lung, 576 nM. Also, the GI50 was 498 nM in the test with A549 NSCLC, 219 nM in the test on DU-145 prostate and 341 nM with UACC-62 melanoma. Also, the TGI was found to be 4.65 µM in the test with HCC-2998 colon; 6.56 µM in the test with SW-620 colon; 5.26 µM in the test with KM12 colon; 3.53 µM with CAKI-1 renal; 8.97 µM in the test with K-562 leukemia; 1.05 µM in the test on RPMI-8226 leukemia. In addition, the TGI in the test with NCI-H522 lung was 2340 nM; with A549 NSCLC, 10.5 µM; with DU-145 prostate it was 11 µM; with UACC-62 melanoma, 1.59 µM.
`O=c1cc(CNc2cc(F)cc(F)c2)c2ccc(I)cc2[nH]1`: the GI50 was over 64.9 µM in the test on HCC-2998 colon; 384 nM in the test on SW-620 colon; 423 nM in the test with KM12 colon; 0.421 µM with CAKI-1 renal; 203 nM in the test with K-562 leukemia; 759 nM in the test on RPMI-8226 leukemia. The GI50 in the test on NCI-H522 lung was 305 nM; in the test with A549 NSCLC it was 707 nM; with DU-145 prostate it was 1690 nM; in the test with UACC-62 melanoma, 508 nM. For the same compound, the TGI in the test on HCC-2998 colon, with SW-620 colon, in the test on KM12 colon, with CAKI-1 renal, in the test with K-562 leukemia and in the test on RPMI-8226 leukemia was over 100 µM each time. For the same compound, the TGI with NCI-H522 lung is over 100000 nM; in the test on A549 NSCLC it was over 100 µM; in the test with DU-145 prostate, over 100 µM; with UACC-62 melanoma, over 100 µM.
As to `COc1cc2nc(Cl)nc(Nc3cccc(C(=O)/C=C/c4ccccc4)c3)c2cc1OC`, the GI50 was 2.54 µM in the test on HCC-2998 colon; 2790 nM with SW-620 colon; 2450 nM in the test with KM12 colon; 4.17 µM with CAKI-1 renal; 1740 nM in the test on K-562 leukemia; 622 nM in the test with RPMI-8226 leukemia. Further, the GI50 is 3090 nM in the test on NCI-H522 lung, over 38700 nM with A549 NSCLC, over 48800 nM with DU-145 prostate and 2550 nM with UACC-62 melanoma. Besides, the TGI in the test on HCC-2998 colon was 5.56 µM; with SW-620 colon, over 100 µM; in the test on KM12 colon, over 100 µM; with CAKI-1 renal it was 35.4 µM; in the test on K-562 leukemia it was over 100 µM; with RPMI-8226 leukemia it was 3.48 µM. Moreover, the TGI with NCI-H522 lung was 52600 nM; with A549 NSCLC, over 100 µM; in the test with DU-145 prostate, over 100 µM; in the test with UACC-62 melanoma, 10.1 µM.
